In patent US8754094B2, “Methods for heat shock protein dependent cancer treatment” (The Research Foundation of State University of New York, priority 2007, dated 2014):

Columns and labels:
[1] = system: NCI-H929; test: Western immunoblotting of caspase-3 and PARP cleavage, NCI-H929; format: cell-based, human; conditions: NCI-H929, 10 μM, time course
Description: Whole-cell lysates were prepared using the Mammalian Cell Lysis Kit (Sigma-Aldrich) and analyzed by Western blot analysis as described in the Zhang reference, cited supra, which is incorporated herein by reference. Equal amounts of protein were separated by SDS-PAGE and electrotransferred onto a nylon membrane. Primary antibodies to detect caspase-3 (Cell Signaling Technology, Danvers, Mass.), poly (ADP-ribose) polymerase (PARP; Abcam, Cambridge, Mass.), and β-actin (Sigma Aldrich) were used along with a HP-conjugated goat-anti-mouse polyclonal secondary antibody (BD Biosciences, Franklin Lakes, N.J.). Enhanced chemiluminescence (ECL) substrate (Pierce Biotechnology, Rockford, Ill.) was used for antibody detection.

[2] = system: NCI-H929; test: Cell cycle analysis by PI staining and FACS, NCI-H929; format: cell-based, human; conditions: NCI-H929, 10 μM, within 48 h of culture
Description: Cell cycle analysis of control (DMSO-treated) or MAL3-101-treated NCI-H929 (2×10^5) was assessed by PI staining and FACS analysis of samples. Resulting DNA distributions were analyzed for the proportions of cells in G0/G1 and G2/M phases of the cell cycle after subtractive gating of cell doublets and debris as described in G. Anderson, M. Gries, N. Kurihara, T. Honjo, J. Anderson, V. Donnenberg, A. Donnenberg, I. Ghobrial, M. Y. Mapara, D. Stirling, D. Roodman, S. Lentzsch, Thalidomide derivative CC-4047 inhibits osteoclast formation by down-regulation of PU. 1, Blood 107 (2006) 3098-3105, which is incorporated herein by reference.

CCCCCCN(C(=O)CCCCCN1C(=O)NC(c2ccc(-c3ccccc3)cc2)C(C(=O)OCc2ccccc2)=C1C)C(C(=O)NCCCC)c1ccc(OCC(=O)OC)c(C(=O)OC)c1 (stereo not drawn) [MAL3-101]
cleavage of caspase-3 and PARP [1]: time-dependent increase in the cleavage of caspase-3 and PARP
decrease in cells in the G2/M phase [2]: 2.5 fold
increase in the sub-G0/G1 phase [2]: ~3 fold
